Our source for the EC50 values is patent US10975077B2 (Novira Therapeutics, Inc., priority 2016, dated 2021).

The subject of one experiment is HBV (encapsidated HBV DNA, HepG2.2.15 cells). As to the kind of experiment: HBV replication inhibition assay, BDNA assay in HepG2.2.15 cells. Format: cell-based. To be noted: Activity in BDNA-assay. Put shortly:
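Encapsidated HBV DNA in DNase-treated, proteinase K-lysed supernatant was measured by branched DNA after 6 days' compound exposure, refreshed on day 3, of HepG2.2.15 cells in 0.5% DMSO. Signals normalized to DMSO-treated wells; EC50 from nonlinear regression of inhibition against log concentration.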
With `CN1CC(CNCC(F)F)Cn2nc3c(c2C1=O)CN(C(=O)Nc1cc(Br)c(F)cc1F)CC3` (single isomer, unassigned) [Compound 125_E2, (S*)—N-(5-bromo-2,4-difluorophenyl)-8-(((2,2-difluoroethyl)amino)methyl)-10-methyl-11-oxo-1,3,4,7,8,9,10,11-octahydro-2H-pyrido[4′,3′:3,4]pyrazolo[1,5-a][1,4]diazepine-2-carboxamide], the EC50 was in the range of 0.001 to 0.1 µM.
With `CCC(O)C1CN(C)C(=O)c2c3c(nn2C1)CCN(C(=O)Nc1ccc(F)c(C#N)c1F)C3` (single isomer, unassigned) [Compound 098_E1, (R*)—N-(3-cyano-2,4-difluorophenyl)-8-((S*)-1-hydroxypropyl)-10-methyl-11-oxo-1,3,4,7,8,9,10,11-octahydro-2H-pyrido[4′,3′:3,4]pyrazolo[1,5-a][1,4]diazepine-2-carboxamide], the EC50 fell in the range of 0.001 to 0.1 µM.
On the same count and under the same terms, with `C[C@@H]1Cc2nn3c(c2CN1C(=O)Nc1ccc(F)c(C#N)c1)C(=O)N(C)CC(CO)C3` (single isomer, unassigned) [Compound 087_D2, (3R,8R*)—N-(3-cyano-4-fluorophenyl)-8-(hydroxymethyl)-3,10-dimethyl-11-oxo-1,3,4,7,8,9,10,11-octahydro-2H-pyrido[4′,3′:3,4]pyrazolo[1,5-a][1,4]diazepine-2-carboxamide] the figure was 0.001 to 0.1 µM; with `CN1CC(CNCC(F)F)Cn2nc3c(c2C1=O)CN(C(=O)Nc1ccc(F)c(C#N)c1F)CC3` (single isomer, unassigned) [Compound 127_E1, (R*)—N-(3-cyano-2,4-difluorophenyl)-8-(((2,2-difluoroethyl)amino)methyl)-10-methyl-11-oxo-1,3,4,7,8,9,10,11-octahydro-2H-pyrido[4′,3′:3,4]pyrazolo[1,5-a][1,4]diazepine-2-carboxamide], 0.5 to 1 µM.

Staying with this experiment, now noted: Hepatitis B virus, HepG2.2.15, Activity in BDNA-assay.
Take `CCC(O)C1CN(C)C(=O)c2c3c(nn2C1)CC(C)N(C(=O)Nc1ccc(F)c(C(F)(F)F)c1)C3` [Compound 107_D1, (3R,8S*)—N-(4-fluoro-3-(trifluoromethyl)phenyl)-8-((R)-1-hydroxypropyl)-3,10-dimethyl-11-oxo-1,3,4,7,8,9,10,11-octahydro-2H-pyrido[4′,3′:3,4]pyrazolo[1,5-a][1,4] diazepine-2-carboxamide]: the EC50 was in the range of 0.001 to 0.1 µM.
For the compound `CN1C/C=C\Cn2nc3c(c2C1=O)CN(C(=O)Nc1ccc(F)c(Cl)c1)CC3` [Compound 111, (Z)—N-(3-chloro-4-fluorophenyl)-11-methyl-12-oxo-3,4,7,10,11,12-hexahydropyrido[4′,3′:3,4]pyrazolo[1,5-a][1,4]diazocine-2 (1H)-carboxamide], the concentration for a half-maximal effect (EC50) was 0.001 to 0.1 µM.
As for `C[C@@H]1Cc2nn3c(c2CN1C(=O)Nc1cc(Cl)c(F)cc1F)C(=O)N(C)CC(CO)C3` (single isomer, unassigned) [Compound 090_D1, (3R,8S*)—N-(5-chloro-2,4-difluorophenyl)-8-(hydroxymethyl)-3,10-dimethyl-11-oxo-1,3,4,7,8,9,10,11-octahydro-2H-pyrido[4′,3′:3,4]pyrazolo[1,5-a][1,4]diazepine-2-carboxamide], the EC50 lay in the range of 0.001 to 0.1 µM.
On the same count and under the same terms, with `CN1CC(N)Cn2nc3c(c2C1=O)CN(C(=O)Nc1ccc(F)c(Cl)c1)CC3` (stereo not drawn) [Compound 019, 8-amino-N-(3-chloro-4-fluorophenyl)-10-methyl-11-oxo-1,3,4,7,8,9,10,11-octahydro-2H-pyrido[4′,3′:3,4]pyrazolo[1,5-a][1,4]diazepine-2-carboxamide] the figure was 0.1 to 0.5 µM; with `CN1CC(N2CCC(F)(F)CC2)Cn2nc3c(c2C1=O)CN(C(=O)Nc1ccc(F)c(Cl)c1)CC3` (stereo not drawn) [Compound 056, N-(3-chloro-4-fluorophenyl)-8-(4,4-difluoropiperidin-1-yl)-10-methyl-11-oxo-1,3,4,7,8,9,10,11-octahydro-2H-pyrido[4′,3′:3,4]pyrazolo[1,5-a][1,4]diazepine-2-carboxamide], 0.1 to 0.5 µM.

The EC50 is the concentration that produces a half-maximal response.
